{"source": "patent US8309769B2", "about": "“Crystalline forms of 2-[2-chloro-4-methylsulfony1-3-(2,2,2-trifluoroethoxymethyl)benzoyl]cyclohexan-1,3-dione” (BASF SE, priority 2007, dated 2012)", "assay_type": "physicochemical", "protocol": "The form in question or mixtures of different forms of tembotrione were suspended in a mixture of methanol with water (volume ratio methanol:water 1:9) at temperatures in the range from 10 to 30° C., and the temperature varied cyclically at a rate of 0.33 K min^−1."}
{"smiles": "CS(=O)(=O)c1ccc(C(=O)C2C(=O)CCCC2=O)c(Cl)c1COCC(F)(F)F", "note": "[mixture of forms A, B and C, 2-[2-chloro-4-methylsulfonyl-3-(2,2,2-trifluoro-ethoxymethyl)benzoyl]cyclohexan-1,3-dione]", "values": [{"measurement": "stability against phase change: modification found after 2 days", "result": "converted into form A"}]}
{"smiles": "CS(=O)(=O)c1ccc(C(=O)C2C(=O)CCCC2=O)c(Cl)c1COCC(F)(F)F", "note": "[form B, 2-[2-chloro-4-methylsulfonyl-3-(2,2,2-trifluoro-ethoxymethyl)benzoyl]cyclohexan-1,3-dione]", "values": [{"measurement": "stability against phase change: modification found after 3 days", "result": "converted completely into modification C"}]}
{"smiles": "CS(=O)(=O)c1ccc(C(=O)C2C(=O)CCCC2=O)c(Cl)c1COCC(F)(F)F", "note": "[form A, 2-[2-chloro-4-methylsulfonyl-3-(2,2,2-trifluoro-ethoxymethyl)benzoyl]cyclohexan-1,3-dione]", "values": [{"measurement": "stability against phase change: modification found after 8 days", "result": "unchanged"}]}
